Some test systems named below: SW-620; HOP-62; HOP-92; SK-MEL-2; LOX IMVI; SNB-19; SK-MEL-28; K562; ACHN; MOLT-4; SNB-75; NCI-H23; CAKI-1; U-251; IGROV-1; TK-10; RPMI-8226; NCI-H460; UO-31; HCC 2998.
Holding throughout (assay): NCI tumour cell line growth inhibition, 48 h

SMILES strings stand for the structures.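 Each compound was tested at five concentrations against cells in 96-well plates for 48 hours. At the GI50, growth is halved.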 Active and inactive are the calls of the source. Rule as the data show it: active = GI50 up to about 1.1 µM and inactive = higher. Some results are limits rather than exact numbers.

Consider `COc1ccc(CC2COc3cc(O)cc(O)c3C2=O)cc1O` (stereo not given), for which the GI50 was 3.56 µM (inactive) in the assay with SW-620; 5.13 µM (inactive) with HOP-62; 22.3 µM (inactive) in the assay on HOP-92; 3.81 µM (inactive) in the assay with SK-MEL-2; 8.83 µM (inactive) in the assay with LOX IMVI; 4.83 µM (inactive) in the assay with SNB-19. Further, the GI50 with SK-MEL-28 was 3.75 µM (inactive); in the assay with K562, 3.13 µM (inactive); in the assay on ACHN, 24.4 µM (inactive); in the assay with MOLT-4 it was 4.3 µM (inactive); in the assay on SNB-75, 1.37 µM (inactive); in the assay on NCI-H23, 16.6 µM (inactive). Moreover, the GI50 with CAKI-1 is 4.88 µM (inactive); in the assay on U-251 it was 4.89 µM (inactive); with IGROV-1, 4.23 µM (inactive); in the assay on TK-10 it was 15.4 µM (inactive); in the assay with RPMI-8226, 3.01 µM (inactive); in the assay with NCI-H460, 6.15 µM (inactive). In addition, the GI50 in the assay on UO-31 is 17 µM (inactive).

Turning to `COc1ccc2c(c1)-c1oc3ccccc3c(=O)c1CO2`, the GI50 in the assay with SW-620 was 28.2 µM (inactive); in the assay on HOP-62, 57.4 µM (inactive); in the assay with SK-MEL-2, 26.3 µM (inactive); with LOX IMVI, 21.6 µM (inactive); in the assay on K562, 65 µM (inactive); in the assay on ACHN it was 28.1 µM (inactive). Also, the GI50 in the assay with MOLT-4 was 28.1 µM (inactive); in the assay with HCC 2998, 46.5 µM (inactive); in the assay on SNB-75, 31.6 µM (inactive); in the assay with NCI-H23, 89.5 µM (inactive); with CAKI-1 it was 20.8 µM (inactive); with U-251, 28.7 µM (inactive). Also, the GI50 is 25.7 µM (inactive) with IGROV-1, 45.2 µM (inactive) in the assay with TK-10, 20.8 µM (inactive) in the assay on RPMI-8226 and 22.9 µM (inactive) in the assay with UO-31.

Regarding `COc1ccc(Nc2nc(N)c(C(=O)c3c[nH]c4ccccc34)s2)cc1`, the GI50 in the assay on SW-620 was 1.65 µM (inactive); in the assay on HOP-62 it was 8.02 µM (inactive); in the assay with HOP-92 it was 5.36 µM (inactive); in the assay with SK-MEL-2, 3.98 µM (inactive); with LOX IMVI, 2.01 µM (inactive); in the assay on SNB-19, 2.82 µM (inactive). Moreover, the GI50 is 14.9 µM (inactive) in the assay with SK-MEL-28; 0.397 µM (active) in the assay with K562; 5.12 µM (inactive) in the assay with ACHN; 0.478 µM (active) in the assay on MOLT-4; 1.57 µM (inactive) in the assay with SNB-75; 3.4 µM (inactive) in the assay with NCI-H23. The GI50 in the assay with CAKI-1 is 2.18 µM (inactive); with U-251, 1.58 µM (inactive); in the assay on IGROV-1 it was 1.13 µM (inactive); with TK-10, 5.56 µM (inactive); in the assay on RPMI-8226, 0.998 µM (active); in the assay on NCI-H460 it was 0.942 µM (active). Moreover, the GI50 in the assay on UO-31 is 3.52 µM (inactive).

For `N=C(N)NCC(N)C(=O)O` (stereo not given), the GI50 in the assay with SW-620, in the assay on HOP-62, in the assay on HOP-92, in the assay with SK-MEL-2, in the assay on LOX IMVI and in the assay with SNB-19 was > 100 µM (inactive) each time. For the same compound, the GI50 in the assay on SK-MEL-28, in the assay on K562, with ACHN, in the assay on SNB-75, in the assay on NCI-H23 and in the assay on CAKI-1 was > 100 µM (inactive) in each case. In addition, the GI50 in the assay on U-251, in the assay on IGROV-1, with TK-10, in the assay with RPMI-8226, in the assay with NCI-H460 and in the assay with UO-31 was > 100 µM (inactive) each time.

In the case of `Oc1cccc(-c2nc3ccccc3s2)c1`, the GI50 with SW-620 is 57.9 µM (inactive); in the assay with HOP-62, 22.5 µM (inactive); in the assay with HOP-92, 25.5 µM (inactive); in the assay on SK-MEL-2, 28.4 µM (inactive); in the assay on LOX IMVI, 26.5 µM (inactive); in the assay with SNB-19, 67.3 µM (inactive). Moreover, the GI50 in the assay with SK-MEL-28 is 74.6 µM (inactive); with K562, 55.6 µM (inactive); in the assay with ACHN, 41 µM (inactive); in the assay on MOLT-4, 24.2 µM (inactive); with SNB-75 it was 19 µM (inactive); in the assay with NCI-H23, 15.8 µM (inactive). For the same compound, the GI50 in the assay with CAKI-1 was 23.9 µM (inactive); in the assay with U-251, 39.5 µM (inactive); in the assay with IGROV-1 it was 5.02 µM (inactive); in the assay on RPMI-8226 it was 39.4 µM (inactive); with NCI-H460 it was 34 µM (inactive); with UO-31 it was 26.1 µM (inactive).

With `O=c1[nH]cnc2c(COCCCO)c[nH]c12`, the GI50 in the assay on SW-620, in the assay with HOP-62, in the assay on HOP-92, in the assay on SK-MEL-2, in the assay on LOX IMVI and with SNB-19 was > 100 µM (inactive) throughout. Moreover, the GI50 in the assay on SK-MEL-28, in the assay with K562, in the assay with ACHN, with MOLT-4, with SNB-75 and in the assay with NCI-H23 was > 100 µM (inactive) each time. Besides, the GI50 in the assay on CAKI-1, in the assay with U-251, with IGROV-1, in the assay on TK-10, in the assay with RPMI-8226 and in the assay with UO-31 was > 100 µM (inactive) each time.

In the case of `CCN(CC)CCn1nc2c3c(c(NCCN)ccc31)Sc1cc(O)ccc1-2`, the GI50 in the assay on SW-620 was 0.351 µM (active); in the assay with HOP-62, 0.416 µM (active); in the assay on HOP-92 it was 0.94 µM (active); in the assay on SK-MEL-2 it was 1.28 µM (inactive); in the assay on LOX IMVI it was 0.146 µM (active); in the assay with SNB-19 it was 0.611 µM (active). In addition, the GI50 is 1.38 µM (inactive) with SK-MEL-28; 0.314 µM (active) in the assay on K562; 0.579 µM (active) with ACHN; 0.0396 µM (active) in the assay on MOLT-4; 0.813 µM (active) in the assay with SNB-75; 0.451 µM (active) in the assay with NCI-H23. The GI50 in the assay with CAKI-1 was 0.516 µM (active); in the assay on U-251, 0.254 µM (active); in the assay on IGROV-1, 0.505 µM (active); in the assay on TK-10, 2.22 µM (inactive); in the assay on RPMI-8226 it was 0.377 µM (active); with NCI-H460, 0.0715 µM (active). In the assay with UO-31, the GI50 was 12.3 µM (inactive).

Regarding `COC1OC2COC1(OC)C1OC(C)(C)OC21` (stereo not given), the GI50 in the assay with SW-620, in the assay with HOP-62, in the assay on SK-MEL-2, in the assay with SNB-19, with SK-MEL-28 and in the assay on K562 was > 100 µM (inactive) each time. Besides, the GI50 in the assay on ACHN, in the assay with MOLT-4, with HCC 2998, with SNB-75, in the assay with NCI-H23 and with CAKI-1 was > 100 µM (inactive) each time. Also, the GI50 in the assay on U-251, with IGROV-1, in the assay with TK-10, in the assay on RPMI-8226, in the assay on NCI-H460 and in the assay with UO-31 was > 100 µM (inactive) throughout.

For `COc1ccc(C(=O)c2c3cc(OC)c(OC)c(OC)c3cc[n+]2C)cc1`, the GI50 in the assay with SW-620 was 34.4 µM (inactive); with HOP-62, 28.2 µM (inactive); with SK-MEL-2 it was 21.1 µM (inactive); with SNB-19, 31 µM (inactive); in the assay with SK-MEL-28 it was 28.5 µM (inactive); in the assay with K562, 20.1 µM (inactive). Also, the GI50 was 26.5 µM (inactive) with ACHN; 20.5 µM (inactive) with MOLT-4; 50.2 µM (inactive) in the assay on HCC 2998; 27.9 µM (inactive) in the assay on SNB-75; 23.7 µM (inactive) in the assay on NCI-H23; 40 µM (inactive) with U-251. Moreover, the GI50 in the assay on IGROV-1 was 34.8 µM (inactive); with TK-10 it was 46.5 µM (inactive); in the assay with RPMI-8226, 10.2 µM (inactive); in the assay with NCI-H460, 31.6 µM (inactive); in the assay on UO-31 it was 26 µM (inactive).

Take `Cc1ccccc1NC(=O)CSc1nnc(Cc2ccccc2)o1`: the GI50 in the assay with HOP-62, in the assay with SK-MEL-2, in the assay with LOX IMVI, in the assay on SK-MEL-28, in the assay on K562 and in the assay with ACHN was > 100 µM (inactive) throughout. Also, the GI50 in the assay on MOLT-4, in the assay on HCC 2998, in the assay on SNB-75, in the assay on NCI-H23, in the assay with U-251 and with IGROV-1 was > 100 µM (inactive) each time. The GI50 in the assay with TK-10, with RPMI-8226, in the assay with NCI-H460 and with UO-31 was > 100 µM (inactive) each time.

In the case of `CC1=C2c3ccccc3N(C(=O)/C=C/C(=O)O)[C@H]2[C@H]2C(=O)OC(=O)[C@H]2C1`, the GI50 in the assay with SW-620, in the assay on HOP-62, in the assay with SK-MEL-2, in the assay with SNB-19, with SK-MEL-28 and in the assay on ACHN was > 10 µM (inactive) throughout. The GI50 in the assay with MOLT-4, in the assay with HCC 2998, with SNB-75, in the assay on NCI-H23, in the assay with CAKI-1 and in the assay with U-251 was > 10 µM (inactive) throughout. Further, the GI50 in the assay with IGROV-1, with TK-10, in the assay with RPMI-8226, in the assay on NCI-H460 and in the assay with UO-31 was > 10 µM (inactive) throughout.

Values taken from ChEMBL document CHEMBL1201862, “PubChem BioAssay data set” (2004).
